# According to patent publication EP0109354B1, “Biocidally active mixture” (priority 1982, dated 1984):
# Where two headings read alike, the source gives them in different places.
# How the values were obtained:
# [1] = tested on: Schleimbildung und Algenbewuchs; assay: Efficacy in outdoor cooling circuits, visual assessment of growth on the plates; conditions: phosphonium compound alone, same concentration and frequency (21 ppm twice a week); stated conditionally ('würde')
# Source text: Untersuchung der Wirksamkeit in Kühlkreisläufen
# Die im Freien stehenden (natürliche Sonneneinstrahlung, Staubeinfall, Witterungseinflüsse) Kühlkreisläufe bestanden aus: • a) einem Kunststoffass mit einem Volumen von 113 I und einem Überlauf • b) einer Pumpe (21 1/min bei 3 m Förderhöhe) • c) einem Kühlturm mit Oregon-(Splint), Oregon-(Kernholz), Eiche-, Fichte-, Asbestzement- und PVC-Platte
# Die Frischwasser-Zufuhr war so eingestellt, dass der Spritz- und Verdunstungsverlust ausgeglichen wurde und die Biocide in 24 h ungefähr 1:2 verdünnt wurden.
# Die Kühlkreisläufe sind durch den natürlichen Staubeinfall und nicht durch gezielte Beimpfung infiziert.
# Zur Verhinderung der Schleimbildung und des Algenwuchses wurde der Kühlkreislauf mit 21 ppm 2mal/Woche einer Lösung von 45% der Verbindung 17 und 5% der Verbindung 13 in Wasser behandelt.
# Ausgewertet wurde der Versuch durch visuelle Beobachtung des Bewuchses auf den Platten.
# Der unbehandelte Kreislauf zeigte schon nach 4 Wochen den ersten Algenbewuchs, die Hölzer waren nach 5 Monaten verschleimt und mit einer dicken Algenschicht überzogen. Der mit 21 ppm 2mal/Woche behandelte Kreislauf zeigte keinerlei Anzeichen von beginnender Schleimbildung und Algenbewuchs.
molecule,measurement,setting,value
"CCCCCCCCCCCC[P+](CCCC)(CCCC)CCCC.[Cl-] [Verbindung 16, Tri-n-butyl-n-dodecyl-phosphoniumchlorid]",P-Verbindung (Mol-%) Endkonzentration,"Bsp. 6: as Beispiel 1, P compound 16 with Sn compound 2","17,9 Mol-%"
"CCCCCCCCCCCCCC[P+](CCCC)(CCCC)CCCC.[Cl-] [Verbindung 17, Tri-n-butyl-tetradecyl-phosphoniumchlorid]",Unterdrückung des Algenbewuchses,[1],nicht gänzlich unterdrücken
same,Endkonzentration der P-Verbindung,"Beispiel 2: with 3,8 Mol-% of Vrb. 3 dissolved",15.3 Mol-%
same,Endkonzentration der P-Verbindung,"Beispiel 3: with 2,9 Mol-% of Vrb. 2 dissolved","16,7 Mol-%"
same,P-Verbindung (Mol-%) Endkonzentration,"Bsp. 4: as Beispiel 1, P compound 17 with Sn compound 8","13,1 Mol-%"
"CCCCCCCCCC[P+](CCCC)(CCCC)CCCC.[Cl-] [Verbindung 18, Tri-n-butyl-n-decyl-phosphoniumchlorid]",P-Verbindung (Mol-%) Endkonzentration,"Bsp. 5: as Beispiel 1, P compound 18 with Sn compound 2","19,2 Mol-%"
"CCCCCCCCCCCCCC[P+](CCCC)(CCCC)CCCC.[Br-] [Verbindung 19, Tri-n-butyl-n-tetradecylphosphoniumbromid]",P-Verbindung (Mol-%) Endkonzentration,"Bsp. 7: as Beispiel 1, P compound 19 with Sn compound 2","15,9 Mol-%"
Tri-n-butylzinnaphtenat [Verbindung 8],Sn-Verbindung (Mol-%) Endkonzentration,"Bsp. 4: as Beispiel 1, Sn compound 8 in solution of P compound 17","7,1 Mol-%"
